According to PMC9952215, “Giving a Hand: Synthetic Peptides Boost the Antifungal Activity of Itraconazole against Cryptococcus neoformans” (Antibiotics, 2023):
Converted amounts (≈) assume the structure as drawn.

Tests used:
C. neoformans [1] = test system: C. neoformans; set-up: method as in earlier work; details: previously defined; ref 7 (Aguiar et al.); cited from earlier work
C. neoformans [2] = details: cited from earlier work; for MIC50 against C. neoformans, alone / concentration in the combination of ibuprofen and ITR: ref 17 (Rocha et al.); for concentration in the combination of ibuprofen and ITR: ibuprofen combined with ITR
Excerpt: For example, […] et al. reported the combined activity against C. neoformans of the aminoglycoside K20 with ITR. […] In contrast, when combined, the concentration to reach the same activity decreases to 187 and 1 for K20 and ITR [16]. In another study, Rocha et al. evaluated the synergistic effect between ibuprofen and ITR against C. neoformans. […] However, the co ...

C. neoformans cells [3] = assay: Overproduction of reactive oxygen species (DCFH-DA, fluorescence microscopy, ImageJ counting); format: cell-based, Cryptococcus neoformans
Method: The ROS overproduction was evaluated according to the method Dias et al.. After incubation for 24 h, as described above, the samples were washed three times with sterile 0.15 M NaCl and centrifuged (5000× g 5 min at 4 °C) to remove the YPD medium. The analysis was conducted, as described, by PI assay. Next, 9 μL of 2',7' […] diacetate-DCFH-DA (Sigma, St. Louis, MI, USA)-was added and incubated in the dark for 30 min at room temperature (22 °C ± 2). Next, they were washed and centrifuged twice under the same conditions as those mentioned above. Then, the cryptococcal cells were observed under a fluorescence microscope (Olympus System BX 41, Tokyo, Japan), with an excitation wavelength of 488 nm and an emission wavelength of 525 nm. The fluorescent C. neoformans cells were counted using ImageJ software using the Cell Counter plugin, according to the methodology described by Aguiar et al.. The cells were counted in the bright and fluorescent field of the same picture. Cells presenting fluorescence were called positive cells, and those without fluorescence were called negative cells. […] The cells were calculated using the equation: number of positive cells × 100/number of cells in the bright field. The number of negative cells was calculated following the equation: number of cells in the bright field-number of positive cells. Three different images were used to count the cells.

C. neoformans cells [4] = assay: Cell membrane integrity / membrane pore formation (propidium iodide uptake, fluorescence microscopy, ImageJ counting); format: cell-based, Cryptococcus neoformans
Method: The cell membrane integrity of C. neoformans was evaluated as described in [7]. After incubation for 24 h, as described above, the samples were washed three times with sterile 0.15 M NaCl and centrifuged (5000× g 5 min at 4 °C) to remove the YPD medium. Then, the cells were incubated with propidium iodide (PI) for 30 min in the dark at room temperature (22 °C ± 2). Next, they were washed and centrifuged twice, under the same conditions as previously mentioned. […] The fluorescent C. neoformans cells were counted using ImageJ software using the Cell Counter plugin, according to the methodology described by Aguiar et al. […] The cells were counted in the bright and fluorescent field of the same picture. Cells presenting fluorescence were called positive cells, and those without fluorescence were called negative cells. […] The cells were calculated using the equation: number of positive cells × 100/number of cells in the bright field. The number of negative cells was calculated following the equation: number of cells in the bright field—number of positive cells. Three different images were used to count the cells.

[5] = test system: C. neoformans (ATCC 32045); assay: Combined antifungal activity (growth inhibition, absorbance 600 nm); format: cell-based, Cryptococcus neoformans; details: YPD, 10^6 cells mL^−1, 24 h, 30 °C, A600, mean ± SD
Method: The combined antifungal activity was evaluated as described in [11]. The combinations with SAMPs and itraconazole were constituted of peptides MIC50 [7] + itraconazole (ITR) 500 (1×) µg mL^−1, peptides [5×D] + ITR [1×D], peptides [10×D] + ITR [5×D], and peptides [10×D] + ITR [10×D]. The cells were grown on YPD agar for […], and cryptococcal cells were then resuspended in YPD medium and standardized at 10^6 cells mL^−1. The assay was performed in 96-well plates and incubated for 24 h at 30 °C. Then, the absorbance was measured at 600 nm using an automated microplate reader (Epoch, Biotek, Santa Clara, CA, USA). The best combinations were used to study the mechanisms of action. […] Experiments were performed in three biological replications, and each biological replication was performed with three technical replicates. The statistical analyses were performed using GraphPad Prism (version 5.01) for Microsoft Windows. All data obtained in the assays were compared using standard deviation and the one-way analysis of variance (ANOVA), followed by the Tukey test (p < 0.05).

Structure (SMILES)	MIC50 against C. neoformans (C. neoformans [1])	concentration to reach the same activity when combined (C. neoformans [2]; K20 combined with ITR, unit not given, ref 16 (Shrestha et al.))	concentration presenting activity against C. neoformans, alone (C. neoformans [2]; agent alone, ref 16 (Shrestha et al.))	MIC50 against C. neoformans, alone (C. neoformans [2]; agent alone)	concentration in the combination of ibuprofen and ITR (C. neoformans [2])	DCFH-DA-fluorescent cells (C. neoformans cells [3]; ITR alone (dilution not stated), ImageJ count of three images)	ROS accumulation (DCFH-DA fluorescence), qualitative (C. neoformans cells [3]; ITR alone, fluorescence images, Figure 2)	positive PI-fluorescent cells (C. neoformans cells [4]; ITR alone (dilution not given; ITR 1× in Figure 1 text), ImageJ count of three images)	membrane pore formation (PI red fluorescence), qualitative (C. neoformans cells [4]; single agent at 1×, fluorescence images, Figure 1)	% of Inhibition of C. neoformans Growth ([5]; single agent at 1× (ITR 500; Mo-CBP3-PepII 25; RcAlb-PepII, RcAlb-PepIII, PepGAT, PepKAA 0.04 µg mL^−1))	% of Inhibition of C. neoformans Growth ([5]; single agent at 5×D (ITR 100; Mo-CBP3-PepII 5; other peptides 0.008 µg mL^−1))	% of Inhibition of C. neoformans Growth ([5]; single agent at 10×D (ITR 50; Mo-CBP3-PepII 2.5; other peptides 0.004 µg mL^−1))
CCC(C)n1ncn(-c2ccc(N3CCN(c4ccc(OCC5COC(Cn6cncn6)(c6ccc(Cl)cc6Cl)O5)cc4)CC3)cc2)c1=O (centres unmarked) [ITR, itraconazole]	500 µg/mL (≈ 709 µM)	1	780 µg/mL	500 µg/mL	125 µg/mL	0%	no ROS accumulation	0%	no red fluorescence	45.3 ± 0.021%	12.2 ± 0.003%	0%
CC(C)Cc1ccc(C(C)C(=O)O)cc1 (centres unmarked) [ibuprofen]	–	–	–	512 µg/mL	16 µg/mL	–	–	–	–	–	–	–
